Data: publication PMC11233548 (Communications Biology, 2024)
Non-standard residues stand in square brackets, D forms with d. Residues, ends and D or L forms follow the SMILES beside them. No end group written: not given here. long linker = not defined here; AEEA = NCCOCCOCC(=O)O

Experiments:
Gal1/B-RBD = Gal1/B-RBD (Homo sapiens, UniProt P15056); assay: Gal1/B-RBD BRET in HEK cells; assay type: cell-based
H-RasG12V nanoclustering [1] = assay: H-RasG12V nanoclustering-BRET in HEK cells; assay type: cell-based, human
[2] = test system: Hs 578 T cells (pERK, pAkt); assay: Immunoblot of EGF-induced pERK and pAkt in Hs 578 T; assay type: cell-based, human; details: 1–20 µM, 2 h, EGF 200 ng/mL 10 min; HRAS-G12D; n = 3–8
T24 cells (pERK, pAkt) = assay type: cell-based, human; details: n = 3–8
[3] = test system: MIA PaCa-2 cells (pERK, pAkt); assay: Immunoblot of EGF-induced pERK and pAkt in MIA PaCa-2; assay type: cell-based, human; details: 2 h, EGF 200 ng/mL 10 min; KRAS-G12C; n = 3–8
HEK cells (pERK, pAkt) = assay type: cell-based, human; details: 2 h, EGF 200 ng/mL 10 min; n = 3–8
Hs 578 T cells = assay: 2D cell viability (alamarBlue), Hs 578 T; assay type: cell-based, human; details: 48 h treatment, n = 3
T24 cells = assay: 2D cell viability (alamarBlue), T24; assay type: cell-based, human; details: 48 h treatment, n = 3
MIA PaCa-2 cells = assay: 2D cell viability (alamarBlue), MIA PaCa-2; assay type: cell-based, human; details: 48 h treatment, n = 3
[4] = test system: Hs 578 T, T24, MIA PaCa-2, and HEK cells; assay: Drug sensitivity score DSS3 from viability data; assay type: cell-based, human; details: 48 h; Fig. 6e
Procedure: The cells were seeded in low attachment, suspension cell culture 96-well plates (Greiner, #655185). About 2000 T24, MIA PaCa-2, and HEK cells and 5000 Hs 578 T cells were seeded per well in a 50 µL complete growth medium. 24 h later, the cells were treated with 50 µL 2× peptide diluted in the growth medium or 0.2% (v/v) of the positive control, benzethonium chloride stock at 100 mM in H2O (Sigma-Aldrich, #B8879). […] Using a CLARIOstar plate reader the fluorescence signal (λexcitation 560 ± 5 nm and λemission 590 ± 5 nm) was recorded. The florescence signal was normalized against the negative control, here DMSO in buffer, representing 100% viability. Additionally, the data was analyzed using Breeze 2.0 to determine a drug sensitivity score (DSS), a normalized area under the curve (AUC). Here we plot only one of the output values from the Breeze pipeline, the DSS3 value, which was calculated as DSS3=DSS2x2−x1/Cmax−Cmin where DSS2 is given by the equation DSS2=DSS1/loga
And DSS1 is given by the equation DSS1=AUC−t(x2−x1)/(100−t)(Cmax−Cmin)
After dose–response inhibition data fitting with a logistic function, the area under the curve (AUC) was determined. The activity threshold (t) was set to ≥10%. The maximum (Cmax) and minimum (Cmin) concentrations used for screening of the inhibitors, with Cmax = x2 and x1 concentration with minimal activity t. […]

A-RBD-D75A = assay: BRET-titration Gal1/A-RBD-D75A; assay type: cell-based, human; details: versus wild-type, n = 3
Procedure: We employed the BRET2 system where RLuc8 and GFP2 luminophores were predominantly used as the donor and acceptor, respectively, with coelenterazine 400a as the substrate. A CLARIOstar plate reader from BMG Labtech was used for BRET and fluorescence intensity measurement. The BRET protocol was adapted as described by us[73].
In brief, 150,000–200,000 HEK293-EBNA cells were seeded per well of a 12-well plate and grown for 24 h in 1 mL of complete DMEM. The next day, the cells were transfected with ~1 µg of plasmid DNA per well using a 3 µL jetPRIME transfection reagent. For the donor saturation titration, 25 ng of the donor plasmid was transfected with an acceptor plasmid concentration ranging from 25 to 1000 ng. […]
First, the fluorescence intensity of GFP2 was measured (λexcitation 405 ± 10 nm and λemission 515 ± 10 nm), which is directly proportional to the acceptor expression (RFU). Then 10 µM of coelenterazine 400a (GoldBio, #C-320) was added to the cells, and BRET readings were recorded simultaneously at λemission 410 ± 40 nm (RLU) and 515 ± 15 nm (BRET signal). Emission intensity measured at 410 nm is directly proportional to the donor expression. The raw BRET ratio was calculated as the ratio of BRET signal/RLU. […] The relative expression was calculated as the ratio of RFU/RLU. […]

B-Raf [5] = assay: Split-luciferase KinCon B-Raf biosensor; assay type: cell-based; details: expression 48 h, HEK cells; n = 3
Procedure: HEK 293-EBNA cells were seeded in a 12-well plate (Greiner Bio-One, #665180) in 1 ml complete DMEM and grown for 24 h. The next day 0.5 µg of KinCon sensor plasmid pcDNA-RlucF1-BRAF-RlucF2 was transfected along with 0.1–0.5 µg of modulator plasmid encoding either SNAP-H-RasG12V or Gal1) using jetPRIME as per manufacturer protocol; pcDNA3.1(−) Thermo Fisher Scientific, #V79520) was used to buffer the total amount of plasmid load per well to 1 µg. After 48 h of expression cells were collected and washed in PBS. Cells from one well of the 12-well plate were resuspended in 200 µL of PBS and 2× 90 µL were pipetted into a white 96-well plate (Nunc, Thermo Fisher Scientific, #236108). Then coelenterazine h was added to a final concentration of 5 µM and the luminescence signal at 480 ± 10 nm was collected for 10 s. The basically background-free signal was normalized against the signal without modulator plasmid.

RBD of Raf proteins = target: RBD of Raf proteins; design: method as in PMID 27087647; details: direct binding; read-out: KD, Gal1 to RBD of Raf proteins; cited from earlier work
Gal1 [6] = target: Gal1; design: method as in PMID 24569991, PMID 7890630; details: dimerization; read-out: KD, Gal1 dimer; cited from earlier work
H-RasG12V nanoclustering [7] = assay: Electron microscopy-based analysis of H-RasG12V nanoclustering in BHK cells; assay type: cell-based, baby hamster kidney (BHK) cells; details: membrane sheets of Gal1-expressing BHK cells; n = 15
Text: To quantify the nanoclustering of a component integral to the plasma membrane (PM), the apical PM sheets of baby hamster kidney (BHK) cells expressing a GFP-tagged H-Ras construct were fixed with 4% (w/v) PFA and 0.1% (w/v) glutaraldehyde. GFP anchored to the PM sheets was probed with 4.5 nm gold particles pre-coupled to anti-GFP antibody. Following embedment with methyl cellulose, the PM sheets were imaged using transmission electron microscopy (JEOL JEM-1400). Using the coordinates of every gold particle, Ripley’s K-function calculated the extent of nanoclustering of gold particles within a selected 1 μm^2 PM area: K(r)=An^−2∑i≠jwij1(∥xi−xj∥≤r) Lr−r=Kr/π−r where n gold particles populate in an intact area of A; r is the length between 1 and 240 nm; || ^. || indicates Euclidean distance where 1(^.) = 1 if ||xi − xj|| ≤ r and 1(^.) = 0 if ||xi − xj|| > r; K(r) specifies the univariate K-function. wij^−1 is a parameter used for an unbiased edge correction and characterizes the proportion of the circumference of a circle that has the center at xi and radius ||xi-xj||. Monte Carlo simulations estimate the 99% confidence interval (99% C.I.), which is then used to linearly transform K(r) into L(r) − r. On a nanoclustering curve of L(r) − r vs. r, the peak L(r) − r value is used as summary statistics for nanoclustering and is termed as Lmax. […]

B-Raf [8] = assay: SNAP-tag mediated pull-down from HEK lysates, B-Raf; assay type: binding, human cell line HEK293-EBNA; details: lysates of Gal1-transfected HEK cells; n = 4
Procedure: (§1) For the pull-down of interactors of L5UR-SNAP and control constructs, HEK293 EBNA cells were plated on 10 cm dishes. For each dish, 5 µg of pDest305-CMV-hGal1 and pEF-L5UR-SNAP, pEF-mutL5UR-SNAP, or pEF-SNAP were transfected. Transfection was done at ≥70% confluency using 2 µL jetPRIME per 1 µg DNA transfected, according to the manufacturer’s instructions. After about 24 h, the growth medium was removed, cells were rinsed twice in cold PBS, and each dish was lysed in 1 mL lysis buffer, consisting of 20 mM HEPES pH 7.5, 4 mM β-mercaptoethanol, 0.05% Igepal, 1× Protease Inhibitor (Thermo Scientific, #A32955) and 1× PhosSTOP (Roche, #04 906 837 001). The cells were scraped and transferred to Eppendorf tubes, then incubated on ice for 30 min, with occasional mixing by inverting the tube. The lysate was cleared by centrifugation for 15 min at 4 °C and 16,363 rcf. Cleared lysate was transferred to a clean tube, 15 µL sample was withdrawn as “Input” for Western blot analysis, and 25 µL of SNAP-capture magnetic beads (New England Biolabs, #S9145S) suspension (diluted 1:1 in lysis buffer) was added. The samples were further incubated for 2 h at room temperature (20–25 °C) on a rotating wheel. […] The samples were resolved on 4–20% SDS-PAGE gels in Tris-Gly buffer and analyzed by Western blotting. […]

C-Raf = assay: SNAP-tag mediated pull-down from HEK lysates, C-Raf; assay type: binding, human cell line HEK293-EBNA; details: lysates of Gal1-transfected HEK cells; n = 4
Procedure: as §1

[9] = test system: catalytic subunit of PI3Kα; assay: SNAP-tag mediated pull-down from HEK lysates, PI3Kα catalytic subunit; assay type: binding, human cell line HEK293-EBNA; details: lysates of Gal1-transfected HEK cells; n = 4
Procedure: as §1

ASPP2 = assay: SNAP-tag mediated pull-down from HEK lysates, ASPP2; assay type: binding, human cell line HEK293-EBNA; details: lysates of Gal1-transfected HEK cells; n = 4
Procedure: as §1

RASSF7 = assay: SNAP-tag mediated pull-down from HEK lysates, RASSF7; assay type: binding, human cell line HEK293-EBNA; details: lysates of Gal1-transfected HEK cells; n = 4
Procedure: as §1

Gal1 [10] = assay: SNAP-tag mediated pull-down from HEK lysates, Gal1; assay type: binding, human cell line HEK293-EBNA; details: lysates of Gal1-transfected HEK cells
Procedure: as §1

Gal1/B-RBD, sequence (P15056 155-227): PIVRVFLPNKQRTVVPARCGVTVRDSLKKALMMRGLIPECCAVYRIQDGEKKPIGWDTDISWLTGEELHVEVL

## CC(=O)NCC(=O)N[C@@H](CCCNC(=N)N)C(=O)N[C@@H](CCCCN)C(=O)N[C@@H](CCCCN)C(=O)N[C@@H](CCCNC(=N)N)C(=O)N[C@@H](CCCNC(=N)N)C(=O)N[C@@H](CCC(N)=O)C(=O)N[C@@H](CCCNC(=N)N)C(=O)N[C@@H](CCCNC(=N)N)C(=O)N[C@@H](CCCNC(=N)N)C(=O)N1CCC[C@H]1C(=O)N[C@@H](CCC(N)=O)C(=O)NCCOCCOCC(=O)N[C@@H](CO)C(=O)N[C@@H](CCCNC(=N)N)C(=O)N[C@@H](CO)C(=O)N[C@@H](CO)C(=O)N[C@@H](CC(C)C)C(=O)N[C@@H](CCCNC(=N)N)C(=O)N[C@@H](CO)C(=O)N[C@@H](CCCNC(=N)N)C(=O)N[C@@H](Cc1c[nH]c2ccccc12)C(=O)NCC(=O)N[C@@H](CCCNC(=N)N)C(=O)N[C@@H](Cc1ccccc1)C(=O)N[C@@H](CC(C)C)C(=O)N[C@@H](CC(C)C)C(=O)N[C@@H](CCC(N)=O)C(=O)N[C@@H](CCCNC(=N)N)C(=O)NCC(=O)N[C@@H](CO)C(=O)N[C@@H](Cc1c[nH]c2ccccc12)C(=O)N[C@H](C(=O)NCC(=O)N1CCC[C@H]1C(=O)N[C@@H](CCCNC(=N)N)C(N)=O)[C@@H](C)O [TAT-L5URcore] (Ac-GRKKRRQRRRPQ[AEEA]SRSSLRSRWGRFLLQRGSWTGPR-NH2)
Gal1/B-RBD
  EC50: 16 ± 1 µM
H-RasG12V nanoclustering [1]; peptide added to HEK cells, 2 h incubation, 37 °C, donor:acceptor 1:5, 200 ng Gal1 plasmid, n = 3
  EC50: 19 ± 1 µM
[2]
  EGF-induced pAkt levels, Hs 578 T: reduced EGF-induced cellular pERK-and pAkt-levels in a dose-dependent manner
  EGF-induced pERK levels, Hs 578 T: reduced EGF-induced cellular pERK-and pAkt-levels in a dose-dependent manner
T24 cells (pERK, pAkt)
  EGF-induced pAkt levels, T24: reduced EGF-induced cellular pERK-and pAkt-levels in a dose-dependent manner
  EGF-induced pERK levels, T24: reduced EGF-induced cellular pERK-and pAkt-levels in a dose-dependent manner
[3]
  pAkt levels, MIA PaCa-2: pAkt-levels were reduced at 20 µM
  pERK levels, MIA PaCa-2: pERK remained unaffected
HEK cells (pERK, pAkt)
  pAkt levels, HEK: slightly induced by TAT-L5URcore, as were pAkt-levels
  pERK levels, HEK: slightly induced
Hs 578 T cells
  proliferation/viability, Hs 578 T: specifically reduced by TAT-L5URcore
T24 cells
  proliferation/viability, T24: specifically reduced by TAT-L5URcore
MIA PaCa-2 cells
  proliferation/viability, MIA PaCa-2: this was also observed for KRAS-mutant MIA PaCa-2
[4]
  anti-proliferative effect (DSS3): higher anti-proliferative effect of TAT-L5URcore as compared to TAT-mutL5URcore

## Gal1: galectin-1, H-Ras nanocluster scaffold
H-RasG12V nanoclustering [1]; expression 48 h, donor:acceptor 1:5, n = 4
  effect of Gal1 expression on H-RasG12V nanoclustering-BRET: increased H-RasG12V nanoclustering-BRET in a dose-dependent manner
A-RBD-D75A
  BRETtop, Gal1/A-RBD-D75A: significantly reduced
B-Raf [5]
  luminescence signal of KinCon B-Raf biosensor: likewise reduced the luminescence signal
RBD of Raf proteins
  Kd: 0.106 ± 0.04 µM
Gal1 [6]
  Kd: 7 µM

## L5UR-SNAP: genetic construct with SNAP-tag added via a long linker to the C-terminus of L5UR (LLRPTAASQSRALGPGAPGGSSRSSLRSRWGRFLLQRGSWTGPRCWPRGFQS-{long linker-SNAP‑tag}; reading uncertain)
Gal1/B-RBD; expression (48 h), donor:acceptor 1:10, HEK, n = 3
  effect of construct expression on Gal1/B-RBD BRET: dose-dependently decreased BRET between Gal1 and the B-RBD
H-RasG12V nanoclustering [1]; expression (48 h), co-transfection of 200 ng Gal1 plasmid, donor:acceptor 1:5, n = 3, Fig. 3c
  reduction of H-RasG12V nanoclustering-BRET: ~ 33%
H-RasG12V nanoclustering [1]; expression (48 h), with co-transfection of 200 ng Gal1 plasmid, donor:acceptor 1:5, n = 3
  effect of construct expression on H-RasG12V nanoclustering-BRET: decreased Gal1-enhanced H-RasG12V nanoclustering-BRET to a similar extent as the untagged L5UR
H-RasG12V nanoclustering [7]
  disruption of H-RasG12V nanoclustering (Lmax): The disruption of H-RasG12V nanoclustering specifically by L5UR-SNAP
B-Raf [8]
  pull-down of B-Raf: pulled down
C-Raf
  pull-down of C-Raf: pulled down
[9]
  pull-down of catalytic subunit of PI3Kα: pulled down
ASPP2
  pull-down of ASPP2: it was pulled down by L5UR-SNAP
RASSF7
  pull-down of RASSF7: as were its two RA-domain containing interaction partners, RASSF7 and RASSF9
Gal1 [10]
  pull-down of Gal1: does under those conditions not interact with Gal1
